# Test results published in ChEMBL document CHEMBL1201862, “PubChem BioAssay data set” (2004).
#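 Following 48 hours of exposure in 96-well plates, responses at five concentrations were used to interpolate endpoints linearly. GI50 marks 50% less growth.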 Activity calls are given as the source filed them. Cut-off read from the data, not from the text of the source: active = GI50 up to about 1.1 µM and inactive = higher.
# Columns and labels:
# Assay in all cases: growth of human tumour cells (NCI), 48 h
# A498 = test system: A498
# A549 = test system: A549
# EKVX = test system: EKVX
# HOP-18 = test system: HOP-18
# HT-29 = test system: HT-29
# MOLT-4 = test system: MOLT-4
# Malme-3M = test system: Malme-3M
# NCI-H226 = test system: NCI-H226
# NCI-H522 = test system: NCI-H522
# OVCAR-5 = test system: OVCAR-5
# SF-295 = test system: SF-295
# SK-MEL-28 = test system: SK-MEL-28
# SNB-78 = test system: SNB-78
# UACC-62 = test system: UACC-62
# NCI-H460 = test system: NCI-H460
# XF498 = test system: XF498
# DU-145 = test system: DU-145
# Hs-578T = test system: Hs-578T
# PC-3 = test system: PC-3
# T47D = test system: T47D
Compound,GI50 (A498),GI50 (A549),GI50 (EKVX),GI50 (HOP-18),GI50 (HT-29),GI50 (MOLT-4),GI50 (Malme-3M),GI50 (NCI-H226),GI50 (NCI-H522),GI50 (OVCAR-5),GI50 (SF-295),GI50 (SK-MEL-28),GI50 (SNB-78),GI50 (UACC-62),GI50 (NCI-H460),GI50 (XF498),GI50 (DU-145),GI50 (Hs-578T),GI50 (PC-3),GI50 (T47D)
Cc1ccc(NP(=O)(Oc2ccccc2)N(CCCl)CCCl)cc1 (stereo unspecified),58.7 µM (inactive),48.2 µM (inactive),> 100 µM (inactive),> 100 µM (inactive),26.1 µM (inactive),9.04 µM (inactive),92.7 µM (inactive),39.6 µM (inactive),> 100 µM (inactive),39.3 µM (inactive),67 µM (inactive),> 100 µM (inactive),> 100 µM (inactive),> 100 µM (inactive),–,–,–,–,–,–
CSc1nc2c(ncn2C2OCC(O)C(O)C2O)c(=O)[nH]1 (stereo unspecified),> 100 µM (inactive),> 100 µM (inactive),> 100 µM (inactive),> 100 µM (inactive),> 100 µM (inactive),> 100 µM (inactive),> 100 µM (inactive),> 100 µM (inactive),> 100 µM (inactive),> 100 µM (inactive),> 100 µM (inactive),> 100 µM (inactive),> 100 µM (inactive),> 100 µM (inactive),> 100 µM (inactive),> 100 µM (inactive),–,–,–,–
CC(=O)c1c(-c2ccco2)c(C#N)c(=S)n(C2OC(CO)C(O)C(O)C2O)c1C (stereo unspecified),–,> 100 µM (inactive),82 µM (inactive),–,> 100 µM (inactive),47.2 µM (inactive),> 100 µM (inactive),–,–,> 100 µM (inactive),> 100 µM (inactive),87.7 µM (inactive),–,78.9 µM (inactive),> 100 µM (inactive),–,> 100 µM (inactive),64.9 µM (inactive),> 100 µM (inactive),35.5 µM (inactive)
O=c1c2c(nc3[nH]ccn13)CCCC2,> 10 µM (inactive),> 10 µM (inactive),> 10 µM (inactive),–,> 10 µM (inactive),> 10 µM (inactive),> 10 µM (inactive),> 10 µM (inactive),> 10 µM (inactive),> 10 µM (inactive),> 10 µM (inactive),> 10 µM (inactive),–,> 10 µM (inactive),> 10 µM (inactive),–,> 10 µM (inactive),1.23 µM (inactive),> 10 µM (inactive),> 10 µM (inactive)
O=C(O)/C=C/c1nc2ccccc2c(=O)o1,–,> 100 µM (inactive),> 100 µM (inactive),> 100 µM (inactive),> 100 µM (inactive),> 100 µM (inactive),–,> 100 µM (inactive),> 100 µM (inactive),–,> 100 µM (inactive),> 100 µM (inactive),> 100 µM (inactive),> 100 µM (inactive),–,–,–,–,–,–
Cc1ccc([N+](=O)[O-])cc1S(=O)(=O)Nc1ccc(C2=NNC(c3ccccc3O)C2)cc1 (stereo unspecified),19.9 µM (inactive),24.9 µM (inactive),20.9 µM (inactive),–,28.8 µM (inactive),24.1 µM (inactive),25.9 µM (inactive),48.3 µM (inactive),23.3 µM (inactive),32.4 µM (inactive),31.7 µM (inactive),26.9 µM (inactive),–,17.6 µM (inactive),25.7 µM (inactive),–,38.7 µM (inactive),43.7 µM (inactive),29.4 µM (inactive),17.3 µM (inactive)
O=C(CCl)NNC1=Nc2ccc(Cl)cc2SC1,20.6 µM (inactive),9.33 µM (inactive),2.07 µM (inactive),1.88 µM (inactive),1.85 µM (inactive),1.12 µM (active),1.69 µM (inactive),2.61 µM (inactive),0.553 µM (active),2.26 µM (inactive),15.1 µM (inactive),2.03 µM (inactive),2.03 µM (inactive),2.12 µM (inactive),6.79 µM (inactive),1.85 µM (inactive),–,–,–,–
Cc1nc2c(c(=O)[nH]1)S/C(=C(/C#N)c1nc3ccccc3[nH]1)N2c1ccccc1,> 100 µM (inactive),> 100 µM (inactive),> 100 µM (inactive),–,> 100 µM (inactive),> 100 µM (inactive),> 100 µM (inactive),–,> 100 µM (inactive),> 100 µM (inactive),> 100 µM (inactive),> 100 µM (inactive),0.607 µM (active),> 100 µM (inactive),> 100 µM (inactive),> 100 µM (inactive),–,–,–,–
CN(C(=O)c1ccccc1)c1ccc2c(c1)C(=O)c1ccccc1C2=O,–,–,> 100 µM (inactive),–,> 100 µM (inactive),> 100 µM (inactive),> 100 µM (inactive),> 100 µM (inactive),> 100 µM (inactive),> 100 µM (inactive),> 100 µM (inactive),> 100 µM (inactive),–,> 100 µM (inactive),> 100 µM (inactive),> 100 µM (inactive),–,–,–,–
Cc1ccc2[nH]c3c(C)c4ccncc4c(C)c3c2c1,1.5 µM (inactive),0.966 µM (active),1.47 µM (inactive),0.252 µM (active),1.06 µM (active),0.231 µM (active),1.9 µM (inactive),1.72 µM (inactive),0.929 µM (active),1.37 µM (inactive),1.08 µM (active),1.55 µM (inactive),1.73 µM (inactive),1.62 µM (inactive),0.456 µM (active),1.6 µM (inactive),–,–,–,–
CCCCCn1cc2c3c(cccc31)C1C=C(C)CN(C)[C@@H]1C2.Cc1ccc(C(=O)OC(C(=O)O)C(OC(=O)c2ccc(C)cc2)C(=O)O)cc1 (stereo unspecified),8.83 µM (inactive),9.33 µM (inactive),10.8 µM (inactive),2.33 µM (inactive),3.4 µM (inactive),4.24 µM (inactive),2.56 µM (inactive),9.79 µM (inactive),3.44 µM (inactive),9.89 µM (inactive),6.17 µM (inactive),6.93 µM (inactive),13.7 µM (inactive),5.25 µM (inactive),3.89 µM (inactive),2.67 µM (inactive),–,–,–,–
COc1ccc(N2C(Cl)C(=O)C2c2c[nH]c3ccccc23)cc1 (stereo unspecified),–,> 100 µM (inactive),> 100 µM (inactive),–,> 100 µM (inactive),> 100 µM (inactive),72.6 µM (inactive),–,> 100 µM (inactive),80.9 µM (inactive),> 100 µM (inactive),> 100 µM (inactive),–,> 100 µM (inactive),> 100 µM (inactive),> 100 µM (inactive),–,–,–,–
COC1=C2CC(C)CC(OC)C(OC(=O)CN)[C@H](C)/C=C(\C)C(OC(N)=O)C(OC)/C=C\C=C(/C)C(=O)NC(=CC1=O)C2=O (stereo partly specified),12.1 µM (inactive),9.73 µM (inactive),0.838 µM (active),–,0.306 µM (active),0.344 µM (active),0.351 µM (active),10.4 µM (inactive),0.159 µM (active),1.03 µM (active),3.84 µM (inactive),0.161 µM (active),–,0.468 µM (active),6.14 µM (inactive),–,1.45 µM (inactive),3.79 µM (inactive),1.1 µM (active),0.281 µM (active)
O=C1OC2(CC1C1(O)C3CC4CC(C3)CC1C4)C1CC3CC(C1)CC2C3 (stereo unspecified),28.1 µM (inactive),56.4 µM (inactive),–,6.61 µM (inactive),> 100 µM (inactive),> 100 µM (inactive),58.3 µM (inactive),> 100 µM (inactive),–,–,14.5 µM (inactive),> 100 µM (inactive),> 100 µM (inactive),> 100 µM (inactive),32.1 µM (inactive),9.77 µM (inactive),–,–,–,–
CC1(C(=O)O)CCC(C(=O)O)C(C)(C)O1 (stereo unspecified),–,> 100 µM (inactive),> 100 µM (inactive),–,> 100 µM (inactive),> 100 µM (inactive),> 100 µM (inactive),> 100 µM (inactive),> 100 µM (inactive),> 100 µM (inactive),> 100 µM (inactive),> 100 µM (inactive),–,> 100 µM (inactive),> 100 µM (inactive),–,> 100 µM (inactive),> 100 µM (inactive),> 100 µM (inactive),> 100 µM (inactive)
COC(Cc1cc(C(O)(c2ccc(C(C)(C)C)cc2)c2cc(CC(OC)(c3cc(C(OC)(c4ccc(C(C)(C)C)cc4)c4ccc(C(C)(C)C)cc4)c(C)cc3C)c3cc(C(OC)(c4ccc(C(C)(C)C)cc4)c4ccc(C(C)(C)C)cc4)c(C)cc3C)c(C)cc2C)c(C)cc1C)(c1cc(C(OC)(c2ccc(C(C)(C)C)cc2)c2ccc(C(C)(C)C)cc2)c(C)cc1C)c1cc(C(OC)(c2ccc(C(C)(C)C)cc2)c2ccc(C(C)(C)C)cc2)c(C)cc1C,> 75 µM (inactive),> 75 µM (inactive),> 75 µM (inactive),–,> 75 µM (inactive),> 75 µM (inactive),> 75 µM (inactive),> 75 µM (inactive),–,> 75 µM (inactive),> 75 µM (inactive),> 75 µM (inactive),–,> 75 µM (inactive),> 75 µM (inactive),–,> 75 µM (inactive),> 75 µM (inactive),> 75 µM (inactive),> 75 µM (inactive)
CN/N=C(\C(=O)Nc1ccc(C)c(C)c1)C(C(=O)OC)c1nc2ccc([N+](=O)[O-])cc2nc1O (stereo unspecified),> 100 µM (inactive),> 100 µM (inactive),60.5 µM (inactive),–,> 100 µM (inactive),> 100 µM (inactive),–,> 100 µM (inactive),12.6 µM (inactive),> 100 µM (inactive),> 100 µM (inactive),> 100 µM (inactive),> 100 µM (inactive),83.8 µM (inactive),> 100 µM (inactive),> 100 µM (inactive),–,–,–,–
